Tests used:
Assay type in all cases: toxicity, cell-based
[1] = system: U2OS; test: Incucyte cell viability with U2OS; conditions: human, 10 µM, compound concentration 10 uM
[2] = system: Fibroblast; test: Incucyte cell viability with human fibroblast; conditions: 10 µM, compound concentration 10 uM
[3] = system: HEK-293T; test: Incucyte cell viability with HEK293T; conditions: human, 10 µM, compound concentration 10 uM
Further: unitless GR value; below 1 slowed growth and below 0 cell loss.

Compound	Growth Rate ([1]; 12 h, replicate number 1)	Growth Rate ([1]; 18 h, replicate number 1)	Growth Rate ([1]; 18 h, replicate number 2)	Growth Rate ([1]; 24 h, replicate number 2)	Growth Rate ([2]; 0 h, replicate number 1)	Growth Rate ([2]; 12 h, replicate number 2)	Growth Rate ([2]; 18 h, replicate number 1)	Growth Rate ([2]; 18 h, replicate number 2)	Growth Rate ([2]; 24 h, replicate number 1)	Growth Rate ([2]; 24 h, replicate number 2)	Growth Rate ([3]; 0 h, replicate number 1)	Growth Rate ([3]; 0 h, replicate number 2)	Growth Rate ([3]; 12 h, replicate number 1)	Growth Rate ([3]; 12 h, replicate number 2)	Growth Rate ([3]; 18 h, replicate number 1)	Growth Rate ([3]; 18 h, replicate number 2)	Growth Rate ([3]; 24 h, replicate number 1)	Growth Rate ([3]; 24 h, replicate number 2)	Growth Rate ([1]; 0 h, replicate number 1)	Growth Rate ([3]; 6 h, replicate number 2)	further results
CNc1nc(-c2ccc3c(N)n[nH]c3c2)cc(N2C[C@@H](C(=O)NC3CCCCC3)CC[C@H]2C)n1	0.7	0.49	0.82	0.72	-0.99	0.96	0.38	0.7	0.22	0.64	-1	-0.02	0.89	0.66	0.8	0.55	0.72	0.55			Growth Rate ([1]; 12 h, replicate number 2): 0.8; Growth Rate ([1]; 24 h, replicate number 1): 0.51; Growth Rate ([2]; 12 h, replicate number 1): 0.62
CCn1c(-c2nonc2N)nc2cncc(C(=O)N3CC[C@H](N)C3)c21.Cl			0.88	0.79	-1						-0.71	-0.15							-1		Growth Rate ([2]; 0 h, replicate number 2): -0.88
CCc1nc(-c2cccc(C)c2)c(-c2ccncc2)s1					-0.98						-0.67				0.99					0.9	Growth Rate ([1]; 0 h, replicate number 2): 0.65; Growth Rate ([1]; 6 h, replicate number 2): 0.83; Growth Rate ([2]; 0 h, replicate number 2): 0.64; Growth Rate ([2]; 6 h, replicate number 2): 1; Growth Rate ([2]; 12 h, replicate number 1): 0.95
Cc1cc(NC(=O)c2cccc(NC(=O)/C=C/CN(C)C)c2)ccc1Nc1nccc(-c2cccnc2)n1	0.69	0.46	0.93	0.51	-1	-0.15	-0.24	-0.3	-0.22	-0.29	0	0.65	-0.26	-0.35	-0.23	-0.32	-0.19	-0.26	-1	-0.41	Growth Rate ([1]; 24 h, replicate number 1): 0.29; Growth Rate ([2]; 0 h, replicate number 2): 0.14; Growth Rate ([2]; 6 h, replicate number 1): 0.07; Growth Rate ([2]; 6 h, replicate number 2): 0.32; Growth Rate ([2]; 12 h, replicate number 1): -0.2; Growth Rate ([3]; 6 h, replicate number 1): -0.35
OCC1OC(n2cnc3cc(Cl)c(Cl)cc32)C(O)C1O (centres undefined)	0.53	0.33	0.94		-0.9	0.42		0.86	0.84	0.78	0.64	0.84	0.43	0.83	0.48	0.74	0.55	0.82		0.29	Growth Rate ([1]; 0 h, replicate number 2): 0.83; Growth Rate ([1]; 6 h, replicate number 2): 0.95; Growth Rate ([2]; 0 h, replicate number 2): -0.97; Growth Rate ([2]; 6 h, replicate number 2): 0.4; Growth Rate ([3]; 6 h, replicate number 1): 0.33
Cn1ncc(NC(=O)c2nc(-c3c(F)cccc3F)sc2N)c1N1CC[C@@H](N)[C@H](F)CC1				0.96	-1						-1	-0.31						0.77	-1		
CNS(=O)(=O)c1ccc(N(C)C)c(Nc2ncnc3cc(OC)c(OC)cc23)c1	0.84	0.85	0.39	0.71	-1	0.32	0.69	0.4	0.51	0.29	-0.66	0.17		0.6	0.88	0.42	0.79	0.47	-1	0.92	Growth Rate ([1]; 6 h, replicate number 2): 0.65; Growth Rate ([1]; 12 h, replicate number 2): 0.6; Growth Rate ([1]; 24 h, replicate number 1): 0.8
Cc1n[nH]c2ncc(C(=O)N3CCC[C@H]3c3ccc(Cl)cc3)cc12	0.67	0.94				0.76	0.66	0.99	0.73	0.92	0.29			0.96		1	1	0.89		0.58	Growth Rate ([1]; 6 h, replicate number 1): 0.34; Growth Rate ([1]; 24 h, replicate number 1): 0.91; Growth Rate ([2]; 6 h, replicate number 1): 0.75
Fc1cccc(-n2cnc3c(NCc4nc5ccc(F)c(F)c5[nH]4)nc(N4CCOCC4)nc32)c1	0.06	-0.23	0.61	0.38		-0.11	0.04	-0.03	-0.01	0.03	-0.62		-0.36		-0.28	-0.31	-0.21	-0.25		-0.21	Growth Rate ([1]; 6 h, replicate number 1): 0.56; Growth Rate ([1]; 24 h, replicate number 1): -0.23; Growth Rate ([2]; 6 h, replicate number 1): -0.08; Growth Rate ([2]; 6 h, replicate number 2): -0.22; Growth Rate ([2]; 12 h, replicate number 1): 0.02; Growth Rate ([3]; 6 h, replicate number 1): -0.14
Fc1ccc(-c2nc(-c3c(F)cccc3F)[nH]c2-c2ccncc2)cc1			0.97	0.76	-0.99						-0.47	0.65		0.5		0.62		0.68	-1	0.27	Growth Rate ([2]; 0 h, replicate number 2): 0.29
CNC(=O)c1c(F)cccc1Nc1nc(Nc2cc3c(cc2OC)CCN3C(=O)CN(C)C)nc2[nH]ccc12	0.02	-0.42	-0.11	-0.14	-0.92	-0.65	-0.23	-0.62	-0.23	-0.6	-1	0.35		0.75		-0.03		-0.14	-0.99		Growth Rate ([1]; 0 h, replicate number 2): -1; Growth Rate ([1]; 12 h, replicate number 2): 0.29; Growth Rate ([1]; 24 h, replicate number 1): -0.45; Growth Rate ([2]; 6 h, replicate number 1): 0.23; Growth Rate ([2]; 6 h, replicate number 2): -0.71; Growth Rate ([2]; 12 h, replicate number 1): 0.04
CN1Cc2nccc(-c3cn(C)nc3-c3ccc(F)cc3)c2C1=O.Cl		0.99									-0.38	0.69							0.53		Growth Rate ([1]; 0 h, replicate number 2): 0.96; Growth Rate ([2]; 0 h, replicate number 2): 0.28
O=C(Nc1snnc1C(=O)Nc1ccc(N2CCCC2)cc1)c1cncc(C(F)(F)F)c1	-0.58				-1	0.11		0.43	0.96	0.59	0.43	0.78	0.99	0.8	0.92	0.86	0.91	0.9	-1	0.54	Growth Rate ([1]; 6 h, replicate number 2): 0.89; Growth Rate ([1]; 12 h, replicate number 2): 0.81; Growth Rate ([2]; 0 h, replicate number 2): -0.64; Growth Rate ([2]; 6 h, replicate number 2): 0.26
CC(=O)c1c(C)c2cnc(Nc3ccn(C)n3)nc2n(C2CCCC2)c1=O	0.06		0.92				0.8				0.51		0.97	0.81	0.9	0.79	0.79	0.83		0.76	Growth Rate ([1]; 6 h, replicate number 1): 0.67; Growth Rate ([1]; 6 h, replicate number 2): 0.96; Growth Rate ([1]; 12 h, replicate number 2): 0.99; Growth Rate ([2]; 6 h, replicate number 2): 0.93; Growth Rate ([3]; 6 h, replicate number 1): 0.81
COCCNC1CCC(Nc2cc(-c3csc(NCC4(C#N)CCOCC4)n3)c(Cl)cn2)CC1 (centres undefined)		-0.21	0.04	-0.03	-1	0.24	0.16	-0.14	0.14	-0.16	-0.55	0.97	-0.33	-0.48	-0.33	-0.43	-0.24	-0.35	-1	-0.42	Growth Rate ([1]; 6 h, replicate number 2): 0.51; Growth Rate ([1]; 12 h, replicate number 2): 0.08; Growth Rate ([2]; 6 h, replicate number 1): 0.99; Growth Rate ([2]; 12 h, replicate number 1): 0.4; Growth Rate ([3]; 6 h, replicate number 1): -0.19
O=C1Nc2ccc(I)cc2/C1=C/c1cc(Br)c(O)c(Br)c1					-1						-0.98	0.38		0.98		0.88		0.86	-0.98	0.9	Growth Rate ([1]; 0 h, replicate number 2): 0.76

— ChEMBL document CHEMBL5303304, “EUbOPEN Chemogenomics Library - IncuCyte” (2023)
